Drawing on patent US9535057B2, “Method of in vivo screening for cardiac toxic agents using teleost” (CITY UNIVERSITY OF HONG KONG, priority 2007, dated 2017), this text covers heart rate for one molecule.

In the series the test system is zebrafish embryos. Briefly: Cardiotoxicity screen in zebrafish embryos: heart rate and heart beat rhythm from video of blood circulation with power spectral analysis, and by direct examination of heart. The format is in vivo. Conditions: 48-hpf zebrafish embryos, 2 μM haloperidol in egg medium, 4 hour incubation; direct examination of heart and power spectral analysis (FIG. 7); p<0.05 vs control.

Source text: Before videoing blood cell circulation, the teleost is immobilized on a surface, for example, glass slide or plastic petri dish. Immobilization medium can be agarose, agar or methyl-cellulose. The optimal concentration of agarose or agar used is 0.5% (w/v) or lower. The concentration of methyl-cellulose used is 2-4% (w/v). Teleosts should be oriented in their spontaneous lateral position.
A video imaging system consists of a microscope, either stereomicroscope or conventional light microscope, with low magnification objective (FIG. 1). […] Video recorded in medium, e.g. VCR tape or mini DV tape, or recorded in personal computer is converted back to readable format, such as AVI or WMV format, and stored in personal computer for further video image analysis. […]
Data analysis of the series of the amount of differential pixels obtained from video image analysis is performed by methods implemented in the home-made software. Data series of amount of differential pixels is analyzed by comprising power spectral analysis in which data series of differential pixels is decomposed by discrete Fourier transform. […] A total power value of the spectrum is calculated. […]
The embodiment is tested in wild type embryos at 52 hpf. […] Heart rate is determined from direct visual counting of the number of heart beats in 1 min. […] In addition, the cardiac rhythm is determined as the standard deviation of heart beat time interval. […]

As for `O=C(CCCN1CCC(O)(c2ccc(Cl)cc2)CC1)c1ccc(F)cc1` [haloperidol], the heart rate result is on record as “significantly decreased”.
